Source: publication PMC6539903 (Molecules, 2019)

What was measured:
[1] = MTT cytotoxicity assay, non-cancer colon cells; type: cell-based; conditions: human, NCM460 colonic epithelial cells (non-cancer cell line), n = 3, non-cancer cell line, read-out: CC50 ± SD NUM460
Protocol: Besides, the MTT assay was performed on a non-cancer line NCM460 to assess the cytotoxicity of the test compound to normal colon cells.
(§1) MCF-7 (human breast cell line), HeLa (human cervical cell line), A549 (human lung cell line), HepG2 (human liver cell line), SW620 (human colorectal cell line) and a non-cancer cell line, NCM460 (Human colonic epithelial cells) were preserved at the State Key Laboratory of Pharmaceutical Biotechnology, Nanjing University (Nanjing, China).
(§2) The antiproliferative activity of the synthetic compounds against the SW620, MCF-7, HeLa, A549, HepG2, and NUM460 cell lines was evaluated by a colorimetric assay based on a modified standard (MTT). […] Thereafter, MTT (5 mg/mL in PBS) was added to each well and incubated for 4 h. 150 μL of DMSO was added to each well and shaken with a shaker. The absorbance (OD 570 nm) was read at 630 nm on an ELISA reader (ELx800, BioTek, montpelier, VT, USA). IC50 values for the compounds were calculated by comparison to DMSO treated control wells. Three replicate wells were used for each drug concentration. Each assay was performed three times.

[2] = biological target: T1, COX-1 (Homo sapiens, UniProt P23219); assay: COX-1 inhibition assay (COX-1 ELISA kit); type: biochemical; conditions: mean of four determinations; read-out: IC50 ± SD COX-1
T1 construct: purchased Cayman Chemical 701170
T1 sequence (P23219 24-599): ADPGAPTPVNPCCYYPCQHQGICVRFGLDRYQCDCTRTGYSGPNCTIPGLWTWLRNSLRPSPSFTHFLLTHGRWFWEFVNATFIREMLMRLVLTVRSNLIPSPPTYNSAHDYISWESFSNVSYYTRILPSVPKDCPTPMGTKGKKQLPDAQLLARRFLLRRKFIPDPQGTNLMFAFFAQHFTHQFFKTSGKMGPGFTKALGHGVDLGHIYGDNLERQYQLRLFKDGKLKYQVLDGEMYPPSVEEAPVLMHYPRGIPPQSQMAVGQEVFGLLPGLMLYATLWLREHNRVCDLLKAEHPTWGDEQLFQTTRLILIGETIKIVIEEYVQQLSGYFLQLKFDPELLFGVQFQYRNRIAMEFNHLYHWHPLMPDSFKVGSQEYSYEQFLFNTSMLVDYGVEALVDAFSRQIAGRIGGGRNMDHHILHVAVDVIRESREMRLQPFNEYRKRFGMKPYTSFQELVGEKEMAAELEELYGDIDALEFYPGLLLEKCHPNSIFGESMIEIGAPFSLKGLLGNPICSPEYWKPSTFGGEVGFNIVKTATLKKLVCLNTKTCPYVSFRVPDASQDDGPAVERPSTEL
Protocol: (§3) 3-(4,5-Dimethylthiazol-2-yl)-2,5-diphenyltetrazolium (MTT) were purchased from Beyotime Institute of Biotechnology (Haimen, China). Annexcin V-FITC cell apoptosis assay kit (catalog No.BA11100) was purchased from BIO-BOX (Nanjing, China). Fibronectin (#F1056) and laminin (#L2020) were purchased from Sigma-Aldrich (St. Louis, MO, USA).
(§4) Then 1 M HCl was added to the reaction mixture to stop the reaction, and one-tenth of the volume of saturated stannous chloride (50 mg/mL) was added. The reaction mixture was incubated at room temperature for 5 min, and PGF2 and PGH2 were produced.

[3] = biological target: T2, COX-2 (Homo sapiens, UniProt P35354); assay: COX-2 inhibition assay (COX-2 ELISA kit); type: biochemical; conditions: for Selectivity Index (SI) (COX-1 IC50/COX-2 IC50): in vitro COX-2 selectivity index; for IC50: mean of four determinations, read-out: IC50 ± SD COX-2
T2 construct: purchased Cayman Chemical 701180
T2 sequence (P35354 18-604): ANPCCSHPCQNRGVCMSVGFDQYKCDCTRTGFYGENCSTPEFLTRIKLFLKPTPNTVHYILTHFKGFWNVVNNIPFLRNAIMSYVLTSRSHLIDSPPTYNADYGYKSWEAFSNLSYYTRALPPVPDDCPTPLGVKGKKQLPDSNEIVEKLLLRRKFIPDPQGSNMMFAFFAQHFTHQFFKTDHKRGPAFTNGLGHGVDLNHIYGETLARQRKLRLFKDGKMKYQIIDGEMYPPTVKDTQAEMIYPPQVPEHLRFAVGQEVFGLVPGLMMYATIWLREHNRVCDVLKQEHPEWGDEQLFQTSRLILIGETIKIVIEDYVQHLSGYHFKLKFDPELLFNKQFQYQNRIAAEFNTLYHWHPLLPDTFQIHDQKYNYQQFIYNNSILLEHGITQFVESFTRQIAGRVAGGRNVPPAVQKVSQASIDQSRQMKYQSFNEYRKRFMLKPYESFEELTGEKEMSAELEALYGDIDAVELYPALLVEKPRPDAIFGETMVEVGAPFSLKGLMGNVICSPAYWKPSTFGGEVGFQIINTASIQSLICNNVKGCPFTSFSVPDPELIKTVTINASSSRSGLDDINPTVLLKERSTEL
Protocol: as §3, §4

[4] = tested on: HeLa; assay: MTT antiproliferation assay, HeLa; type: cell-based; conditions: Homo sapiens, 48 h, n = 3, read-out: IC50 ± SD HeLa
Protocol: as §1, §2

[5] = tested on: SW620 cells; assay: MTT antiproliferation assay, SW620; type: cell-based; conditions: Homo sapiens, SW-620, 48 h, n = 3, read-out: IC50 ± SD SW620
Protocol: as §1, §2

[6] = tested on: HepG2; assay: MTT antiproliferation assay, HepG2; type: cell-based; conditions: Homo sapiens, 48 h, n = 3, read-out: IC50 ± SD HepG2
Protocol: as §1, §2

[7] = tested on: A549; assay: MTT antiproliferation assay, A549; type: cell-based; conditions: Homo sapiens, 48 h, n = 3, read-out: IC50 ± SD A549
Protocol: as §1, §2

[8] = tested on: MCF-7; assay: MTT antiproliferation assay, MCF-7; type: cell-based; conditions: Homo sapiens, MCF7, 48 h, n = 3, read-out: IC50 ± SD MCF-7
Protocol: as §1, §2

| Compound | CC50 at 48 h [1] | IC50 [2] | Selectivity Index (SI) (COX-1 IC50/COX-2 IC50) [3] | IC50 [3] | IC50 [4] | IC50 [5] | IC50 [6] | IC50 [7] | IC50 [8] | melting point |
| --- | --- | --- | --- | --- | --- | --- | --- | --- | --- | --- |
| NS(=O)(=O)c1ccc(N2N=C(c3cccc(F)c3)CC2c2ccc3c(c2)OCO3)cc1 (centres unmarked) [Compound 4h, 4-(5-(Benzo[d][1,3]dioxol-5-yl)-3-(3-fluorophenyl)-4,5-dihydro-1H-pyrazol-1-yl)benzenesulfonamide] | 82.8 ± 7.59 µM | 52.91 ± 0.39 µM | 41.33 | 1.28 ± 0.07 µM | 6.07 ± 0.41 µM | 3.24 ± 0.18 µM | 7.14 ± 0.66 µM | 3.26 ± 0.29 µM | 5.56 ± 0.38 µM | 192 to 193 °C |
| Cc1ccc(C2=NN(c3ccc(S(N)(=O)=O)cc3)C(c3ccc4c(c3)OCO4)C2)cc1C (centres unmarked) [Compound 4f, 4-(5-(Benzo[d][1,3]dioxol-5-yl)-3-(3,4-dimethylphenyl)-4,5-dihydro-1H-pyrazol-1-yl)benzenesulfonamide] | 129 ± 8.96 µM | 58.14 ± 0.47 µM | 33.61 | 1.73 ± 0.11 µM | 8.05 ± 0.77 µM | 4.34 ± 0.33 µM | 11.2 ± 1.03 µM | 5.49 ± 0.44 µM | 7.21 ± 0.62 µM | 179 to 180 °C |
| NS(=O)(=O)c1ccc(N2N=C(c3ccc(I)cc3)CC2c2ccc3c(c2)OCO3)cc1 (centres unmarked) [Compound 4d, 4-(5-(Benzo[d][1,3]dioxol-5-yl)-3-(4-iodophenyl)-4,5-dihydro-1H-pyrazol-1-yl)benzenesulfonamide] | 74.5 ± 5.23 µM | 25.84 ± 0.21 µM | 21.53 | 1.2 ± 0.05 µM | 5.71 ± 0.47 µM | 3.04 ± 0.17 µM | 6.42 ± 0.25 µM | 2.86 ± 0.06 µM | 5.26 ± 0.42 µM | 212 to 214 °C |
| Cc1cccc(C2=NN(c3ccc(S(N)(=O)=O)cc3)C(c3ccc4c(c3)OCO4)C2)c1 (centres unmarked) [Compound 4e, 4-(5-(Benzo[d][1,3]dioxol-5-yl)-3-(m-tolyl)-4,5-dihydro-1H-pyrazol-1-yl)benzenesulfonamide] | 110 ± 7.71 µM | 29.77 ± 0.23 µM | 19.20 | 1.55 ± 0.06 µM | 7.22 ± 0.65 µM | 3.88 ± 0.36 µM | 9.44 ± 0.74 µM | 4.54 ± 0.18 µM | 6.52 ± 0.46 µM | 187 to 188 °C |
| Cc1ccc(C2=NN(c3ccc(S(N)(=O)=O)cc3)C(c3ccc4c(c3)OCO4)C2)c(C)c1 (centres unmarked) [Compound 4i, 4-(5-(Benzo[d][1,3]dioxol-5-yl)-3-(2,4-dimethylphenyl)-4,5-dihydro-1H-pyrazol-1-yl)benzenesulfonamide] | 155 ± 12.7 µM | > 60 µM | >30.30 | 1.98 ± 0.15 µM | 9.16 ± 0.37 µM | 4.96 ± 0.38 µM | 13.3 ± 0.89 µM | 6.71 ± 0.57 µM | 8.14 ± 0.69 µM | 180 to 182 °C |
| COc1cccc(C2=NN(c3ccc(S(N)(=O)=O)cc3)C(c3ccc4c(c3)OCO4)C2)c1 (centres unmarked) [Compound 4g, 4-(5-(Benzo[d][1,3]dioxol-5-yl)-3-(3-methoxyphenyl)-4,5-dihydro-1H-pyrazol-1-yl)benzenesulfonamide] | 211 ± 18.2 µM | > 60 µM | >18.87 | 3.18 ± 0.26 µM | 14.6 ± 0.96 µM | 7.99 ± 0.56 µM | 18.2 ± 1.15 µM | 9.42 ± 0.74 µM | 12.7 ± 0.89 µM | 219 to 221 °C |
| NS(=O)(=O)c1ccc(N2N=C(c3ccccc3)CC2c2ccc3c(c2)OCCO3)cc1 (centres unmarked) [Compound 4k, 4-(5-(2,3-Dihydrobenzo[b][1,4]dioxin-6-yl)-3-phenyl-4,5-dihydro-1H-pyrazol-1-yl)benzenesulfonamide] | 138 ± 11 µM | > 60 µM | >32.97 | 1.82 ± 0.16 µM | 8.44 ± 0.48 µM | 4.56 ± 0.14 µM | 11.9 ± 0.91 µM | 5.92 ± 0.31 µM | 7.54 ± 0.42 µM | 156 to 157 °C |
| Cc1ccc(C2=NN(c3ccc(S(N)(=O)=O)cc3)C(c3ccc4c(c3)OCCO4)C2)cc1 (centres unmarked) [Compound 4l, 4-(5-(2,3-Dihydrobenzo[b][1,4]dioxin-6-yl)-3-(p-tolyl)-4,5-dihydro-1H-pyrazol-1-yl)benzenesulfonamide] | 68.7 ± 5.28 µM | 43.87 ± 0.37 µM | 46.67 | – | 4.46 ± 0.36 µM | 2.35 ± 0.11 µM | 5.92 ± 0.39 µM | 2.58 ± 0.18 µM | 4.22 ± 0.16 µM | 153 to 154 °C |
| Cc1ccc(C2=NN(c3ccc(S(N)(=O)=O)cc3)C(c3ccc4c(c3)OCCO4)C2)cc1C (centres unmarked) [Compound 4s, 4-(5-(2,3-Dihydrobenzo[b][1,4]dioxin-6-yl)-3-(3,4-dimethylphenyl)-4,5-dihydro-1H-pyrazol-1-yl)benzenesulfonamide] | 137 ± 3.98 µM | > 60 µM | >33.33 | 1.8 ± 0.05 µM | 8.41 ± 0.17 µM | 4.54 ± 0.31 µM | 11.8 ± 0.59 µM | 5.86 ± 0.47 µM | 7.51 ± 0.47 µM | 166 to 168 °C |
| NS(=O)(=O)c1ccc(N2N=C(c3ccc(Br)cc3)CC2c2ccc3c(c2)OCCO3)cc1 (centres unmarked) [Compound 4q, 4-(3-(4-Bromophenyl)-5-(2,3-dihydrobenzo[b][1,4]dioxin-6-yl)-4,5-dihydro-1H-pyrazol-1-yl)benzenesulfonamide] | 80.3 ± 8.01 µM | 26.64 ± 0.26 µM | 20.98 | 1.27 ± 0.03 µM | 5.96 ± 0.39 µM | 3.18 ± 0.19 µM | 6.92 ± 0.28 µM | 3.14 ± 0.25 µM | 5.47 ± 0.29 µM | 153 to 154 °C |
| NS(=O)(=O)c1ccc(N2N=C(c3ccccc3)CC2c2ccc3c(c2)OCO3)cc1 (centres unmarked) [Compound 4a, 4-(5-(Benzo[d][1,3]dioxol-5-yl)-3-phenyl-4,5-dihydro-1H-pyrazol-1-yl)benzenesulfonamide] | 88.6 ± 3.96 µM | > 60 µM | >44.44 | 1.35 ± 0.08 µM | 6.32 ± 0.55 µM | 3.38 ± 0.27 µM | 7.64 ± 0.57 µM | 3.54 ± 0.19 µM | 5.77 ± 0.39 µM | 212 to 214 °C |
| NS(=O)(=O)c1ccc(N2N=C(c3cccc(F)c3)CC2c2ccc3c(c2)OCCO3)cc1 (centres unmarked) [Compound 4v, 4-(5-(2,3-Dihydrobenzo[b][1,4]dioxin-6-yl)-3-(3-fluorophenyl)-4,5-dihydro-1H-pyrazol-1-yl)benzenesulfonamide] | 150 ± 6.94 µM | > 60 µM | >31.09 | 1.93 ± 0.08 µM | 8.95 ± 0.39 µM | 4.84 ± 0.27 µM | 12.9 ± 0.99 µM | 6.47 ± 0.29 µM | 7.96 ± 0.55 µM | 200 to 201 °C |
